Series [1] is classed as in vitro ADME, human. As to conditions: for half-life: human serum, 37 °C, 100 μM peptide, read-out: half-life t½ (converted); for degradation in human serum: within 24 h. The method, then: Serum stability was tested as described previously. Briefly, serum was obtained prepared from human blood (self-donor), allowed to coagulate for 2 h at 23 °C and centrifuged at 12,000 × g for 10 min. Peptides (100 μM) were incubated in serum for 2, 4, 6, 8, 10 and 24 h at 37 °C. To evaluate peptide stability, aliquots ([…]) were analysed via RP-HPLC (UltiMate 3000, Thermo Scientific Dionex, Vienna, Austria) on a C18 column (Phenomenex Kinetex, Aschaffenburg, Germany) with a 3% gradient using 0.1% (v/v) TFA and 90/10/0.1% (v/v/v) acetonitrile/H2O/TFA as eluents. Half-life (t1/2) of peptides was calculated using non-linear regression analysis using Graph Pad Prism.
Supplementary Fig. 5. Human serum stability of the inotocin D-analogue. [D-Arg 8 ]-inotocin […]
serum and their stability monitored via HPLC over a time course of 2, 4, 6, 8, 10 and 24 h. Melittin, a haemolytic peptide from the bee venom was used as a positive control f or peptide degradation.
Area under the curves of samples was determined and correlated to the negative control analyte, which was dissolved in 0.1% TFA; thus they were not subject to degradation and were assumed therefore as 100%. Peptide stability was expressed in percentage of peptide remaining.
(1 picture or pasted object on this page, not shown here)

In another series the target is V1aR. Details: method as in earlier work. Conditions: previous studies, ref [32][43], cited from earlier work.
Series [2] deals with inotocin R (T. castaneum). The experiment in a line: Radioligand displacement of [3H] inotocin, inotocin receptor from T. castaneum. Details: species or system Tribolium castaneum. As to conditions: saturation binding experiments. The method, then:
(§1) Chinese Hamster Ovary cells (CHO) were cultured in Ham’s F12 media supplemented with 10% fetal bovine serum (FBS), 1% PenStrep (all from Sigma-Aldrich, Munich, Germany) and grown in a humidified atmosphere of 37 °C, 5% CO2 and passaged on average twice per week. CHO cells were used for expression of inotocin receptor (L. niger, T. castaneum). Cell transfections were carried out with 10 μg of plasmid using Lipofectamine LTX (Life Technologies, Invitrogen, Carlsbad, USA) for invertebrate receptors. For the expression of human OTR, V1aR, V1bR and V2R, HEK293 cells were transfected using jetPRIME (Polyplus Transfections, Illkirch-Graffenstaden, France)[35]. Cells were maintained in DMEM (GE Healthcare Hy Clone™, Logan, USA) supplemented with 10% FBS and 1% PenStrep.
(§2) Unbound ligands were washed off (Skatron Cell Harvester). […] Bindings of [^3H] AVP and [^3H] […] Bindings of [^3H] inotocin to membranes (10 μg) expressing INTR from L. niger, or [^3H] inotocin to membranes (10 μg) expressing INTR from T. castaneum, respectively, were assayed for displacement with an excess of inotocin (10^−11 to 10^−5 M) (n ≥ 3, except where otherwise stated). […] Specific binding was calculated by subtracting the non-specific binding from the total binding. […] Inhibition constants (Ki) were calculated from IC50 using the method by Cheng and Prusoff[65].
Background: In a radioligand displacement assay an active substance lowers the binding of a labelled ligand.

For another series, the target named is inotocin R (L. niger). Nature of the series: Radioligand displacement of [3H] inotocin, inotocin receptor from L. niger. On the set-up: species or system Lasius niger. As to conditions: saturation binding experiments. The method, then:
as §1, §2

Consider `CC[C@H](C)[C@H](NC(=O)CN)C(=O)NCC(=O)N[C@@H](C)C(=O)N[C@H](C(=O)N[C@@H](CC(C)C)C(=O)N[C@@H](CCCCN)C(=O)N[C@H](C(=O)N[C@@H](CC(C)C)C(=O)N[C@H](C(=O)N[C@H](C(=O)NCC(=O)N[C@@H](CC(C)C)C(=O)N1CCC[C@H]1C(=O)N[C@@H](C)C(=O)N[C@@H](CC(C)C)C(=O)N[C@H](C(=O)N[C@@H](CO)C(=O)N[C@@H](Cc1c[nH]c2ccccc12)C(=O)N[C@H](C(=O)N[C@@H](CCCCN)C(=O)N[C@@H](CCCNC(=N)N)C(=O)N[C@@H](CCCCN)C(=O)N[C@@H](CCCNC(=N)N)C(=O)N[C@@H](CCC(N)=O)C(=O)N[C@@H](CCC(N)=O)C(N)=O)[C@@H](C)CC)[C@@H](C)CC)[C@@H](C)O)[C@@H](C)O)C(C)C)C(C)C` [melittin], for which, in series [1], the half-life (as a rule, the time in which the quantity being followed falls by half) is 42 min and the “degradation in human serum” value was “fully degraded”.

As for `NC(=O)CC[C@@H]1NC(=O)[C@H](Cc2ccccc2)NC(=O)[C@H](Cc2ccc(O)cc2)NC(=O)[C@@H](N)CSSC[C@@H](C(=O)N2CCC[C@H]2C(=O)N[C@@H](CCCN=C(N)N)C(=O)NCC(N)=O)NC(=O)[C@H](CC(N)=O)NC1=O` [vasopressin, arginine-vasopressin], in series [1], the half-life was 60 min and the “degradation in human serum” value is “fully degraded”.

On to [D-Arg8]-vasopressin, for which the Ki at V1aR (read-out: binding affinity) was 781 nM. The “difference in affinity of peptide pair vasopressin/[D-Arg8]-vasopressin” value in the series with V1aR is listed as ~ 200 fold.

In the case of “[^3H] inotocin: tritiated inotocin radioligand, C[4,5-3H]LITNCPGR-NH2 as printed (tritium label; N-terminal Cys; C-terminal amide)”, the figures for the dissociation constant Kd (in series [2]; on inotocin R (L. niger)) were 2.7 nM and 0.9 nM, respectively.
